Some test systems named below: ACHN; A549; SW-620; Hs-578T; LOX IMVI; T47D; HCT-15; OVCAR-3; EKVX; SNB-19; HCC 2998; SN12C; SF-539; MDA-MB-231; SK-MEL-28; HOP-92; NCI/ADR-RES; NCI-H226.
Holding throughout (assay): NCI tumour cell line growth inhibition, 48 h

Each structure is given as a SMILES string.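 Where inhibition never reached the appropriate level, the endpoint shown equals the highest concentration tested. Otherwise, values were interpolated linearly from a five-concentration, 48-hour dose response in 96-well plates. GI50: concentration for 50% inhibition of growth.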 Active and inactive are the calls of the source. Rule as the data show it: active = GI50 up to about 1.1 µM and inactive = higher.

`COC(=O)C1=C(C(=O)OC)SC2(S1)C(C(=O)OC)=C(C(=O)OC)Sc1c2ssc1=O`: the GI50 in the assay with ACHN was 0.927 µM (active); with A549, 9.66 µM (inactive); in the assay with SW-620, 0.661 µM (active); in the assay on Hs-578T, 5.18 µM (inactive); in the assay on LOX IMVI, 0.208 µM (active); with T47D, 1.12 µM (active). Moreover, the GI50 in the assay with HCT-15 is 0.369 µM; in the assay with OVCAR-3, 0.904 µM (active); with EKVX it was 2.16 µM (inactive); in the assay on SNB-19, 18.5 µM (inactive); with HCC 2998, 1.31 µM (inactive); in the assay with SN12C, 1.19 µM (inactive). The GI50 is 1.15 µM (inactive) in the assay with SF-539; 1.67 µM (inactive) in the assay with MDA-MB-231; 1.46 µM (inactive) in the assay on SK-MEL-28; 0.826 µM (active) in the assay with HOP-92; 1 µM (active) with NCI/ADR-RES; 1.48 µM (inactive) in the assay with NCI-H226.
For `C=C(C)C12CC3CC/C(=N/O)C(C1)C3(N1CCOCC1)C/C2=N/O` (stereo not drawn), the GI50 in the assay with ACHN, in the assay with A549, with SW-620, in the assay with Hs-578T, with LOX IMVI and in the assay with T47D was > 100 µM (inactive) each time. Also, the GI50 in the assay on HCT-15 is more than 100 µM; in the assay with OVCAR-3, > 100 µM (inactive); in the assay on EKVX, > 100 µM (inactive); with SNB-19 it was > 100 µM (inactive); with HCC 2998, > 100 µM (inactive); in the assay on SN12C it was > 100 µM (inactive). In addition, the GI50 in the assay with SF-539, in the assay on MDA-MB-231, in the assay with SK-MEL-28, with HOP-92, in the assay with NCI/ADR-RES and in the assay on NCI-H226 was > 100 µM (inactive) in each case.
For the molecule `CCOC(=O)Nc1ccc(C)c(NC(=O)OCC)c1`, the GI50 with ACHN, in the assay on A549, in the assay on SW-620, in the assay on Hs-578T, in the assay on LOX IMVI and with T47D was > 100 µM (inactive) in each case. Moreover, the GI50 was more than 100 µM in the assay with HCT-15; > 100 µM (inactive) in the assay on OVCAR-3; 6.58 µM (inactive) with EKVX; > 100 µM (inactive) in the assay with SNB-19; 56.2 µM (inactive) in the assay on HCC 2998; > 100 µM (inactive) with SN12C. In addition, the GI50 in the assay with SF-539, in the assay on MDA-MB-231, in the assay with SK-MEL-28, in the assay on HOP-92, with NCI/ADR-RES and in the assay with NCI-H226 was > 100 µM (inactive) in each case.
`O=C(Cc1ccc(Cl)c(Cl)c1)N(CCc1ccc(Cl)c(Cl)c1)CCN1CCCC1`: the GI50 with ACHN was 1.71 µM (inactive); in the assay with A549, 2.01 µM (inactive); in the assay with SW-620, 1.53 µM (inactive); in the assay on Hs-578T it was 2.98 µM (inactive); in the assay with LOX IMVI it was 1.73 µM (inactive); with T47D, 4.06 µM (inactive). The GI50 with HCT-15 was 1.96 µM; in the assay on OVCAR-3, 2.26 µM (inactive); in the assay on EKVX it was 1.92 µM (inactive); in the assay on SNB-19 it was 2.15 µM (inactive); in the assay on HCC 2998 it was 1.81 µM (inactive); in the assay on SN12C, 1.73 µM (inactive). For the same molecule, the GI50 with SF-539 was 1.75 µM (inactive); in the assay with MDA-MB-231, 1.76 µM (inactive); in the assay with SK-MEL-28 it was 1.43 µM (inactive); in the assay on HOP-92, 1.88 µM (inactive); in the assay on NCI/ADR-RES it was 2.04 µM (inactive); with NCI-H226 it was 2.01 µM (inactive).
With `Nc1c(O)c(C(=O)O)cc2ccccc12`, the GI50 in the assay on ACHN was 25.4 µM (inactive); in the assay with A549, 45.4 µM (inactive); in the assay on SW-620 it was 18.3 µM (inactive); in the assay with Hs-578T it was 37 µM (inactive); with LOX IMVI, 10.6 µM (inactive); with T47D, 37 µM (inactive). Moreover, the GI50 was 36.6 µM in the assay with HCT-15; 24.3 µM (inactive) with OVCAR-3; 53.8 µM (inactive) in the assay on EKVX; > 100 µM (inactive) in the assay on SNB-19; 94 µM (inactive) in the assay with HCC 2998; 38.4 µM (inactive) in the assay with SN12C. Also, the GI50 is 40.6 µM (inactive) in the assay on SF-539; 15.3 µM (inactive) in the assay on MDA-MB-231; 37.2 µM (inactive) in the assay on SK-MEL-28; 35 µM (inactive) in the assay on HOP-92; 32.1 µM (inactive) with NCI/ADR-RES; 30.1 µM (inactive) in the assay with NCI-H226.
On to `COc1ccccc1C1SCC(=O)N1c1ccc(-n2c(-c3ccccc3)nc3ccccc3c2=O)cc1` (stereo not drawn), for which the GI50 with ACHN is 71.8 µM (inactive); in the assay with A549 it was 62.7 µM (inactive); with SW-620 it was 63.5 µM (inactive); in the assay with Hs-578T it was 39.4 µM (inactive); in the assay on LOX IMVI it was 77.8 µM (inactive); in the assay with T47D, 12.9 µM (inactive). Besides, the GI50 in the assay with HCT-15 is 54.2 µM; with OVCAR-3, > 100 µM (inactive); in the assay on EKVX, > 100 µM (inactive); in the assay with SNB-19, > 100 µM (inactive); with HCC 2998 it was 70.6 µM (inactive); with SN12C it was > 100 µM (inactive). Also, the GI50 in the assay with SF-539 was > 100 µM (inactive); in the assay with MDA-MB-231 it was 47.6 µM (inactive); in the assay with SK-MEL-28, > 100 µM (inactive); in the assay with HOP-92 it was 19.2 µM (inactive); in the assay with NCI/ADR-RES, 19.3 µM (inactive); with NCI-H226 it was 74.1 µM (inactive).
Take `C=C1CC2(CC(c3ccccc3OC)OC(c3ccccc3OC)C2)OC1=O` (stereo not drawn): the GI50 in the assay on ACHN is 2.29 µM (inactive); with A549, 4.76 µM (inactive); in the assay with SW-620 it was 1.72 µM (inactive); in the assay with Hs-578T, 2.02 µM (inactive); in the assay with LOX IMVI, 1.47 µM (inactive); in the assay on T47D, 1.72 µM (inactive). The GI50 with HCT-15 was 2.28 µM; in the assay on OVCAR-3, 1.87 µM (inactive); with EKVX, 14.6 µM (inactive); with SNB-19, 7.55 µM (inactive); in the assay with HCC 2998, 2.49 µM (inactive); with SN12C it was 1.97 µM (inactive). In addition, the GI50 was 2.15 µM (inactive) in the assay with SF-539; 1.77 µM (inactive) with MDA-MB-231; 1.45 µM (inactive) in the assay with SK-MEL-28; 1.64 µM (inactive) with HOP-92; 2.47 µM (inactive) in the assay on NCI/ADR-RES; 8.41 µM (inactive) in the assay with NCI-H226.
Consider `CCCCCCCCCC/C=C/CC(=O)SCCNC(=O)CCNC(=O)[C@@H](O)C(C)(C)COP(=O)(O)OP(=O)(O)OCC1OC(n2cnc3c(N)ncnc32)C(O)C1OP(=O)(O)O` (stereo partly drawn), for which the GI50 in the assay on ACHN, in the assay on A549, with SW-620, in the assay on Hs-578T, in the assay on LOX IMVI and in the assay on T47D was > 10 µM (inactive) each time. Further, the GI50 with HCT-15 is more than 10 µM; in the assay with OVCAR-3 it was > 10 µM (inactive); in the assay with EKVX, > 10 µM (inactive); with SNB-19, > 10 µM (inactive); in the assay with HCC 2998, > 10 µM (inactive); with SN12C, > 10 µM (inactive). The GI50 with SF-539, in the assay on MDA-MB-231, with SK-MEL-28, in the assay with HOP-92, in the assay on NCI/ADR-RES and in the assay on NCI-H226 was > 10 µM (inactive) throughout.
Regarding `Cc1cc2c(cc1N)C(C)C1(CCC(=O)N2Cc2ccccc2)OCCO1` (stereo not drawn), the GI50 in the assay on ACHN, with A549, with SW-620, in the assay with Hs-578T, in the assay with LOX IMVI and with T47D was > 100 µM (inactive) throughout. In addition, the GI50 with HCT-15 was more than 100 µM; with OVCAR-3, > 100 µM (inactive); with EKVX it was > 100 µM (inactive); in the assay with SNB-19 it was > 100 µM (inactive); in the assay on HCC 2998, > 100 µM (inactive); in the assay with SN12C, > 100 µM (inactive). In addition, the GI50 in the assay on SF-539, with MDA-MB-231, with SK-MEL-28, with HOP-92, in the assay on NCI/ADR-RES and with NCI-H226 was > 100 µM (inactive) in each case.
Turning to `O=C1c2ccccc2C(=O)N1C(=S)c1ccccc1`, the GI50 in the assay on ACHN, in the assay with A549, with SW-620, in the assay on Hs-578T, in the assay on LOX IMVI and in the assay with T47D was > 100 µM (inactive) throughout. Moreover, the GI50 with HCT-15 was more than 100 µM; with OVCAR-3, > 100 µM (inactive); in the assay on EKVX it was > 100 µM (inactive); in the assay on SNB-19 it was > 100 µM (inactive); with HCC 2998, > 100 µM (inactive); in the assay with SN12C, > 100 µM (inactive). For the same molecule, the GI50 in the assay with SF-539, in the assay on MDA-MB-231, in the assay on SK-MEL-28, in the assay on HOP-92, in the assay on NCI/ADR-RES and in the assay on NCI-H226 was > 100 µM (inactive) each time.
Regarding `COc1cc2c(NCCCCCO)ncnc2c(OC)c1OC`, the GI50 is > 100 µM (inactive) in the assay on ACHN; > 100 µM (inactive) in the assay with A549; > 100 µM (inactive) in the assay on SW-620; > 100 µM (inactive) with Hs-578T; > 100 µM (inactive) in the assay with LOX IMVI; > 96.2 µM (inactive) in the assay with T47D. Besides, the GI50 in the assay with HCT-15 was more than 100 µM; in the assay on OVCAR-3 it was > 100 µM (inactive); in the assay with EKVX, > 100 µM (inactive); in the assay with SNB-19, > 100 µM (inactive); in the assay on HCC 2998 it was > 100 µM (inactive); with SN12C it was > 100 µM (inactive). The GI50 with SF-539 was > 100 µM (inactive); with MDA-MB-231, 95.5 µM (inactive); in the assay on SK-MEL-28, > 100 µM (inactive); in the assay with HOP-92 it was 43.8 µM (inactive); in the assay on NCI/ADR-RES it was > 100 µM (inactive); in the assay on NCI-H226 it was 43.9 µM (inactive).

These data come from ChEMBL document CHEMBL1201862, “PubChem BioAssay data set” (2004).
